Assay results: US8785463B2, “GPR 119 agonists” (Cadila Healthcare Limited, priority 2010, dated 2014)

Biological target: T1, human GPR 119 receptor (Homo sapiens, UniProt Q8TDV5)
T1 construct: expressed in transfected cells
T1 sequence (Q8TDV5 1-335): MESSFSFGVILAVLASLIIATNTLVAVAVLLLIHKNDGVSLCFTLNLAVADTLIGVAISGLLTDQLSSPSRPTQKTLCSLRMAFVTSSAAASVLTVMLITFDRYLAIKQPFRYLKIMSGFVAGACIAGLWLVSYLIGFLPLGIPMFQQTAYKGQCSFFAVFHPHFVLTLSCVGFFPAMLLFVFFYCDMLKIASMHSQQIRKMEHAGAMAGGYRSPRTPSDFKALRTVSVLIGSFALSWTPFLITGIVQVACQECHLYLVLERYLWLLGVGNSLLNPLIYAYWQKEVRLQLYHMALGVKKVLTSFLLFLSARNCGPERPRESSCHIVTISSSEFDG
Experiment: cAMP assay in stable cell line expressing recombinant human GPR 119 receptor
Format: cell-based
Conditions: DMSO = 1
Source text: A stable cell line expressing recombinant human GPR 119 receptor was established and used to investigate the efficacy of the compounds of the invention based on the intracellular levels of cyclic AMP (cAMP) using commercially available cAMP kits.

| SMILES | Fold increase in cyclic AMP with respective to DMSO (10 nM compound) [fold] | Fold increase in cyclic AMP with respective to DMSO (100 nM compound) [fold] | Fold increase in cyclic AMP with respective to DMSO (1 uM compound) [fold] |
| --- | --- | --- | --- |
| Cc1c(Oc2cccc(/C=C3\SC(=O)NC3=O)c2)ncnc1OC1CCN(c2nc(C(C)C)no2)CC1 [Example 25, (Z)-5-(3-((6-((1-(3-Isopropyl-1,2,4-oxadiazol-5-yl)piperidin-4-yl)oxy)-5-methylpyrimidin-4-yl)oxy)benzylidene)thiazolidine-2,4-dione] | 3.32 | 5.81 | 1.39 |
| COc1cc(/C=C2\SC(=O)NC2=O)ccc1Oc1ncnc(OC2CCN(C(=O)OC(C)(C)C)CC2)c1C [Example 8, (Z)-tert-Butyl 4-((6-(4-((2,4-dioxothiazolidin-5-ylidene)methyl)-2-methoxyphenoxy)-5-methylpyrimidin-4-yl)oxy)piperidine-1-carboxylate] | 0.52 | 0.85 | 1.67 |
| O=C1NC(=O)/C(=C/c2cccc(Oc3cc(OC4CCN(c5ncccn5)CC4)ncn3)c2)S1 [Example 42, (Z)-5-(3-((6-((1-(Pyrimidin-2-yl)piperidin-4-yl)oxy)pyrimidin-4-yl)oxy)benzylidene)thiazolidine-2,4-dione] | 0.65 | 1.27 | 3.10 |
| Cc1c(OCC2CCCN2C(=O)OC(C)(C)C)ncnc1Oc1cccc(/C=C2\SC(=O)NC2=O)c1 (stereo not drawn) [Example 23, (Z)-tert-Butyl 2-(((6-(3-((2,4-dioxothiazolidin-5-ylidene)methyl)phenoxy)-5-methylpyrimidin-4-yl)oxy)methyl)pyrrolidine-1-carboxylate] | 0.90 | 1.29 | 1.11 |

Next, values leading:

| Fold increase in cyclic AMP with respective to DMSO (10 nM compound) [fold] | Fold increase in cyclic AMP with respective to DMSO (100 nM compound) [fold] | Fold increase in cyclic AMP with respective to DMSO (1 uM compound) [fold] | SMILES |
| --- | --- | --- | --- |
| 1.50 | 2.57 | 4.03 | Cc1c(OCC2CCCN2C(=O)OC(C)(C)C)ncnc1Oc1ccc(/C=C2\SC(=O)NC2=O)cc1 (stereo not drawn) [Example 18, (Z)-tert-Butyl 2-(((6-(4-((2,4-dioxothiazolidin-5-ylidene)methyl)phenoxy)-5-methylpyrimidin-4-yl)oxy)methyl)pyrrolidine-1-carboxylate] |
| 0.61 | 0.63 | 1.42 | Cc1c(Oc2ccc(/C=C3\SC(=O)NC3=O)cc2)ncnc1OC1CCN(C(=O)OCc2ccccc2)CC1 [Example 13, (Z)-Benzyl 4-((6-(4-((2,4-dioxothiazolidin-5-ylidene)methyl)phenoxy)-5-methylpyrimidin-4-yl)oxy)piperidine-1-carboxylate] |
| 1.91 | 2.54 | 3.17 | Cc1c(Oc2ccc(/C=C3\SC(=O)NC3=O)cc2)ncnc1OC1CCN(C(=O)OC(C)C)CC1 [Example 16, (Z)-iso-Propyl 4-((6-(4-((2,4-dioxothiazolidin-5-ylidene)methyl)phenoxy)-5-methylpyrimidin-4-yl)oxy)piperidine-1-carboxylate] |
| 0.95 | 1.82 | 1.66 | Cc1c(Oc2cccc(/C=C3\SC(=O)NC3=O)c2)ncnc1OC1CCN(C(=O)OCC(C)C)CC1 [Example 22, (Z)-iso-Butyl 4-((6-(3-((2,4-dioxothiazolidin-5-ylidene)methyl)phenoxy)-5-methylpyrimidin-4-yl)oxy)piperidine-1-carboxylate] |
| 1.00 | 1.38 | 2.51 | COC(=O)N1CCC(Oc2ncnc(Oc3ccc(/C=C4\SC(=O)NC4=O)cc3)c2C)CC1 [Example 11, (Z)-Methyl 4-((6-(4-((2,4-dioxothiazolidin-5-ylidene)methyl)phenoxy)-5-methylpyrimidin-4-yl)oxy)piperidine-1-carboxylate] |
